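48-hour exposure; five concentrations; linearly interpolated endpoints. Here, GI50 denotes the concentration required for 50% inhibition of growth.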 Active and inactive are the calls of the source. Rule as the data show it: active = GI50 up to about 1.1 µM and inactive = higher.
How the values were obtained:
Test in all cases: growth of human tumour cells (NCI), 48 h
786-0 = tested on: 786-0
A498 = tested on: A498
A549 = tested on: A549
ACHN = tested on: ACHN
BT-549 = tested on: BT-549
CAKI-1 = tested on: CAKI-1
CCRF-CEM = tested on: CCRF-CEM
COLO 205 = tested on: COLO 205
DLD-1 = tested on: DLD-1
DMS-114 = tested on: DMS-114
DMS-273 = tested on: DMS-273
DU-145 = tested on: DU-145
EKVX = tested on: EKVX
HCC 2998 = tested on: HCC 2998
HCT-116 = tested on: HCT-116
HCT-15 = tested on: HCT-15
HL-60 = tested on: HL-60
HOP-18 = tested on: HOP-18
HOP-62 = tested on: HOP-62
HOP-92 = tested on: HOP-92
HT-29 = tested on: HT-29
Hs-578T = tested on: Hs-578T
IGROV-1 = tested on: IGROV-1
K562 = tested on: K562
KM-20L2 = tested on: KM-20L2
KM12 = tested on: KM12
LOX IMVI = tested on: LOX IMVI
LXFL 529 = tested on: LXFL 529
M14 = tested on: M14
M19-MEL = tested on: M19-MEL
MCF7 = tested on: MCF7
MDA-MB-231 = tested on: MDA-MB-231
MDA-MB-435 = tested on: MDA-MB-435
MDA-N = tested on: MDA-N
MOLT-4 = tested on: MOLT-4
Malme-3M = tested on: Malme-3M
NCI-H226 = tested on: NCI-H226
NCI-H23 = tested on: NCI-H23
NCI-H460 = tested on: NCI-H460
NCI-H522 = tested on: NCI-H522
NCI/ADR-RES = tested on: NCI/ADR-RES
OVCAR-3 = tested on: OVCAR-3
OVCAR-4 = tested on: OVCAR-4
OVCAR-5 = tested on: OVCAR-5
OVCAR-8 = tested on: OVCAR-8
PC-3 = tested on: PC-3
RPMI-8226 = tested on: RPMI-8226
RXF 393 = tested on: RXF 393
RXF 631 = tested on: RXF 631
SF-268 = tested on: SF-268
SF-295 = tested on: SF-295
SF-539 = tested on: SF-539
SK-MEL-28 = tested on: SK-MEL-28
SK-MEL-2 = tested on: SK-MEL-2
SK-MEL-5 = tested on: SK-MEL-5
SK-OV-3 = tested on: SK-OV-3
SN12C = tested on: SN12C
SNB-19 = tested on: SNB-19
SNB-75 = tested on: SNB-75
SNB-78 = tested on: SNB-78
SR = tested on: SR
SW-620 = tested on: SW-620
TK-10 = tested on: TK-10
U-251 = tested on: U-251
UACC-257 = tested on: UACC-257
UACC-62 = tested on: UACC-62
UO-31 = tested on: UO-31
XF498 = tested on: XF498

O=C1/C(=C/c2ccc(O)cc2)CCC1CNc1ccc(Cl)cc1 (stereo not drawn)
GI50 (786-0): 1.83 µM (inactive)
GI50 (A498): 15 µM (inactive)
GI50 (A549): 7.01 µM (inactive)
GI50 (ACHN): 760 nM (active)
GI50 (BT-549): 12.6 µM (inactive)
GI50 (CAKI-1): 1.55 µM (inactive)
GI50 (CCRF-CEM): 624 nM (active)
GI50 (COLO 205): 1.19 µM (inactive)
GI50 (DLD-1): 912 nM (active)
GI50 (DMS-114): 1.31 µM (inactive)
GI50 (DMS-273): 836 nM (active)
GI50 (DU-145): 13.3 µM (inactive)
GI50 (EKVX): 6.61 µM (inactive)
GI50 (HCC 2998): 3.93 µM (inactive)
GI50 (HCT-116): 1.38 µM (inactive)
GI50 (HCT-15): 1300 nM
GI50 (HL-60): 861 nM (active)
GI50 (HOP-18): 6.08 µM (inactive)
GI50 (HOP-62): 7.43 µM (inactive)
GI50 (HOP-92): 14.7 µM (inactive)
GI50 (HT-29): 1.53 µM (inactive)
GI50 (Hs-578T): 17.7 µM (inactive)
GI50 (IGROV-1): 3.21 µM (inactive)
GI50 (K562): 250 nM (active)
GI50 (KM-20L2): 579 nM (active)
GI50 (KM12): 895 nM (active)
GI50 (LOX IMVI): 270 nM (active)
GI50 (LXFL 529): 357 nM (active)
GI50 (M14): 643 nM (active)
GI50 (M19-MEL): 1.79 µM (inactive)
GI50 (MCF7): 1.34 µM (inactive)
GI50 (MDA-MB-231): 3.04 µM (inactive)
GI50 (MDA-MB-435): 3.61 µM (inactive)
GI50 (MDA-N): 6.53 µM (inactive)
GI50 (MOLT-4): 1.71 µM (inactive)
GI50 (Malme-3M): 4.28 µM (inactive)
GI50 (NCI-H226): 12.6 µM (inactive)
GI50 (NCI-H23): 5.9 µM (inactive)
GI50 (NCI-H460): 4.15 µM (inactive)
GI50 (NCI-H522): 552 nM (active)
GI50 (NCI/ADR-RES): 5.45 µM (inactive)
GI50 (OVCAR-3): 2.28 µM (inactive)
GI50 (OVCAR-4): 2.96 µM (inactive)
GI50 (OVCAR-5): 10.1 µM (inactive)
GI50 (OVCAR-8): 1.38 µM (inactive)
GI50 (PC-3): 1.42 µM (inactive)
GI50 (RPMI-8226): 755 nM (active)
GI50 (RXF 393): 6.31 µM (inactive)
GI50 (RXF 631): 8.89 µM (inactive)
GI50 (SF-268): 3.2 µM (inactive)
GI50 (SF-295): 2.88 µM (inactive)
GI50 (SF-539): 6.37 µM (inactive)
GI50 (SK-MEL-28): 9.95 µM (inactive)
GI50 (SK-MEL-2): 14.4 µM (inactive)
GI50 (SK-MEL-5): 4.66 µM (inactive)
GI50 (SK-OV-3): 5.14 µM (inactive)
GI50 (SN12C): 3.94 µM (inactive)
GI50 (SNB-19): 15.2 µM (inactive)
GI50 (SNB-75): 15.6 µM (inactive)
GI50 (SNB-78): 12.5 µM (inactive)
GI50 (SR): 914 nM (active)
GI50 (SW-620): 1.37 µM (inactive)
GI50 (TK-10): 1.72 µM (inactive)
GI50 (U-251): 5.7 µM (inactive)
GI50 (UACC-257): 3.05 µM (inactive)
GI50 (UACC-62): 367 nM (active)
GI50 (UO-31): 3.01 µM (inactive)
GI50 (XF498): 2.7 µM (inactive)
